Reference: patent US20180303812A1, “PHARMACEUTICAL COMPOSITION FOR USE IN TREATING AML AND METHOD OF TREATING AML IN A SUBJECT IN NEED THEREOF” (DAIICHI SANKYO COMPANY, LIMITED, priority 2015, published 2018)

Experiments:
[1] = tested on: AML samples (mononuclear cells from peripheral blood or bone marrow of AML patients); assay: Ex vivo treatment of primary AML patient samples; live cells by annexin V / propidium iodide binding assays; type: cell-based, human
Description: Leukemia samples isolated from peripheral blood or bone marrow of patients with newly diagnosed or relapsed/refractory AML were treated using the test compound as described below.
Heparinized peripheral blood and bone marrow samples containing more than 1.6×10^7 mononuclear cells were obtained from AML patients with newly diagnosed or relapsed/refractory AML, after informed consent according to the University of Texas MD Anderson Cancer Center (MDA, Houston, Tex., USA) guidelines in accordance with the Declaration of Helsinki. In each sample, the blast counts (blast %) was determined from routine morphological differential counts by clinical laboratory technicians, confirmed by hematopathologists at MDA (usually 500 cells were counted). […]
Mononuclear cells were purified by density-gradient centrifugation. The cells were cultured in RPMI 1640 medium containing 10% fetal bovine serum and were treated ex vivo for 48 hours with the test compound (0, 25, 50, 100, 250, 500, or 1000 nM), and live cell numbers were determined by apoptosis analysis using annexin V and propidium iodide (PI, purchased from Sigma-Aldrich) binding assays. Annexin V- and PI-negative cells were counted as live cells. Apoptosis was quantified as the proportion of annexin V-positive cells, and specific apoptosis was calculated by the following formula: % specific apoptosis=(test−control)×100/(100−control). […]

AML = AML patients; cited from earlier work

| Compound | leukemia cells induce apoptosis ([1]; in other samples) | leukemia cells induced apoptosis ([1]; in some of the samples, at a higher concentration) | clinical response (AML) |
| --- | --- | --- | --- |
| CC1(C)CCC2(CC1)N[C@@H](C(=O)N[C@@H]1CC[C@@H](C(N)=O)OC1)[C@H](c1ccnc(Cl)c1F)[C@]21C(=O)Nc2cc(Cl)ccc21.Cc1ccc(S(=O)(=O)O)cc1 [Compound 2, (3′R,4′S,5′R)—N-[(3R,6S)-6-carbamoyltetrahydro-2H-pyran-3-yl]-6″-chloro-4′-(2-chloro-3-fluoropyridin-4-yl)-4,4-dimethyl-2″-oxo-1″,2″-dihydrodispiro[cyclohexane-1,2′-pyrrolidine-3′,3″-indole]-5′-carboxamide mono(4-methylbenzenesulfonate) monohydrate] | less than 20% | more than 80% | – |
| CCOc1cc(C(C)(C)C)ccc1C1=N[C@@](C)(c2ccc(Cl)cc2)[C@@](C)(c2ccc(Cl)cc2)N1C(=O)N1CCN(CCCS(C)(=O)=O)CC1 [RG7112] | – | – | clinical responses including complete remissions |
